Assay results from the NIST ThermoML archive (doi:10.1016/j.jct.2018.11.010).

Assay: xn = mol fraction of the nth substance listed
Conditions: Liquid, Vibrating tube method

CCCCCCCO [heptan-1-ol] + CCCCOCCCC
mass density [kg/m3]
Conditions | x2 = 0 | x2 = 0.1488 | x2 = 0.3201 | x2 = 0.4944 | x2 = 0.7014 | x2 = 0.8534
333.15 K, 140000 kPa | – | 857.7 | 850.3 | 843.3 | 834.8 | 829
353.15 K, 100 kPa | 778.1 | 768 | 756.6 | 745.6 | 732.4 | 723.4
353.15 K, 1000 kPa | 778.8 | 768.8 | 757.4 | 746.6 | 733.4 | 724.5
353.15 K, 5000 kPa | 782.3 | 772.5 | 761.4 | 750.8 | 738 | 729.4
353.15 K, 10000 kPa | 786.3 | 776.8 | 766 | 755.8 | 743.3 | 735
353.15 K, 15000 kPa | 790.2 | 781 | 770.4 | 760.4 | 748.4 | 740.3
353.15 K, 20000 kPa | 793.9 | 784.8 | 774.5 | 764.8 | 753.1 | 745.2
353.15 K, 25000 kPa | 797.3 | 788.5 | 778.4 | 768.9 | 757.4 | 749.8
353.15 K, 30000 kPa | 800.7 | 792.1 | 782.3 | 772.9 | 761.7 | 754.1
353.15 K, 35000 kPa | 804 | 795.5 | 785.8 | 776.7 | 765.6 | 758.3
353.15 K, 40000 kPa | 807.1 | 798.6 | 789.2 | 780.1 | 769.4 | 762.1
353.15 K, 45000 kPa | 810 | 801.8 | 792.5 | 783.7 | 773 | 765.9
353.15 K, 50000 kPa | 813 | 804.9 | 795.8 | 787.1 | 776.7 | 769.6
353.15 K, 55000 kPa | 815.8 | 807.8 | 798.8 | 790.2 | 779.9 | 773.1
353.15 K, 60000 kPa | 818.6 | 810.7 | 801.8 | 793.3 | 783.2 | 776.5
353.15 K, 65000 kPa | 821.2 | 813.5 | 804.7 | 796.4 | 786.3 | 779.7
353.15 K, 70000 kPa | 823.8 | 816.2 | 807.5 | 799.3 | 789.5 | 782.9
353.15 K, 80000 kPa | 828.7 | 821.2 | 812.8 | 804.8 | 795.2 | 788.8
353.15 K, 90000 kPa | 833.5 | 826.2 | 817.9 | 810.1 | 800.7 | 794.4
353.15 K, 100000 kPa | 837.9 | 830.8 | 822.7 | 815.1 | 805.9 | 799.8
353.15 K, 110000 kPa | 842.3 | 835.3 | 827.4 | 819.9 | 810.9 | 804.9
353.15 K, 120000 kPa | 846.4 | 839.5 | 831.8 | 824.4 | 815.6 | 809.7
353.15 K, 130000 kPa | 850.3 | 843.7 | 836 | 828.7 | 820.1 | 814.2
353.15 K, 140000 kPa | 854.3 | 847.6 | 840.1 | 833 | 824.5 | 818.7
373.15 K, 100 kPa | 761.9 | – | – | – | – | –
373.15 K, 1000 kPa | 762.8 | 752.3 | 740.4 | 729.1 | 715.4 | 706.3
373.15 K, 5000 kPa | 766.6 | 756.5 | 744.8 | 733.9 | 720.7 | 711.9
373.15 K, 10000 kPa | 771.1 | 761.3 | 750 | 739.6 | 726.7 | 718.3
373.15 K, 15000 kPa | 775.5 | 765.9 | 754.9 | 744.8 | 732.4 | 724.2
373.15 K, 20000 kPa | 779.5 | 770.2 | 759.5 | 749.6 | 737.6 | 729.7
373.15 K, 25000 kPa | 783.4 | 774.3 | 763.9 | 754.3 | 742.5 | 734.8
373.15 K, 30000 kPa | 787.1 | 778.1 | 768 | 758.6 | 747.2 | 739.6
373.15 K, 35000 kPa | 790.6 | 781.9 | 772 | 762.7 | 751.6 | 744.1
373.15 K, 40000 kPa | 794 | 785.4 | 775.7 | 766.7 | 755.7 | 748.5
373.15 K, 45000 kPa | 797.2 | 788.9 | 779.3 | 770.5 | 759.7 | 752.7
373.15 K, 50000 kPa | 800.3 | 792.1 | 782.7 | 774 | 763.4 | 756.5
373.15 K, 55000 kPa | 803.4 | 795.2 | 786 | 777.5 | 767.1 | 760.3
373.15 K, 60000 kPa | 806.3 | 798.3 | 789.2 | 780.8 | 770.6 | 763.9
373.15 K, 65000 kPa | 809.2 | 801.3 | 792.3 | 784 | 774 | 767.4
373.15 K, 70000 kPa | 811.9 | 804.1 | 795.3 | 787.1 | 777.2 | 770.6
373.15 K, 80000 kPa | 817.2 | 809.7 | 801.1 | 793.1 | 783.5 | 777.1
373.15 K, 90000 kPa | 822.3 | 814.9 | 806.5 | 798.7 | 789.3 | 783.1
373.15 K, 100000 kPa | 827 | 819.8 | 811.5 | 803.9 | 794.8 | 788.7
373.15 K, 110000 kPa | 831.6 | 824.5 | 816.5 | 809.1 | 800 | 794
373.15 K, 120000 kPa | 835.9 | 829 | 821.1 | 813.8 | 805 | 799.1
373.15 K, 130000 kPa | 840.2 | 833.4 | 825.6 | 818.4 | 809.8 | 803.9
373.15 K, 140000 kPa | 844.1 | 837.4 | 829.8 | 822.8 | 814.3 | 808.6
393.15 K, 100 kPa | 744.9 | – | – | – | – | –
393.15 K, 1000 kPa | 745.8 | 734.9 | 722.5 | 710.7 | 696.6 | 687.4
393.15 K, 5000 kPa | 750.2 | 739.7 | 727.6 | 716.3 | 702.7 | 693.9
393.15 K, 10000 kPa | 755.3 | 745.1 | 733.5 | 722.7 | 709.7 | 701.2
393.15 K, 15000 kPa | 760.1 | 750.3 | 739 | 728.6 | 716 | 708
393.15 K, 20000 kPa | 764.6 | 755.1 | 744.2 | 734 | 721.9 | 714
393.15 K, 25000 kPa | 768.8 | 759.6 | 749 | 739.1 | 727.4 | 719.7
393.15 K, 30000 kPa | 772.9 | 763.8 | 753.5 | 743.9 | 732.4 | 725
393.15 K, 35000 kPa | 776.8 | 767.9 | 757.8 | 748.5 | 737.3 | 730
393.15 K, 40000 kPa | 780.4 | 771.8 | 761.9 | 752.7 | 741.8 | 734.8
393.15 K, 45000 kPa | 783.9 | 775.4 | 765.8 | 756.8 | 746 | 739.1
393.15 K, 50000 kPa | 787.3 | 779 | 769.4 | 760.7 | 750.1 | 743.4
393.15 K, 55000 kPa | 790.7 | 782.5 | 773.2 | 764.5 | 754.2 | 747.5
393.15 K, 60000 kPa | 793.8 | 785.7 | 776.5 | 768 | 757.9 | 751.3
393.15 K, 65000 kPa | 796.8 | 788.9 | 779.8 | 771.4 | 761.5 | 755
393.15 K, 70000 kPa | 799.8 | 792 | 783.1 | 774.9 | 765 | 758.7
393.15 K, 80000 kPa | 805.5 | 797.8 | 789.2 | 781.2 | 771.6 | 765.4
393.15 K, 90000 kPa | 810.9 | 803.5 | 795 | 787.2 | 777.9 | 771.8
393.15 K, 100000 kPa | 815.9 | 808.6 | 800.4 | 792.8 | 783.6 | 777.7
393.15 K, 110000 kPa | 820.8 | 813.7 | 805.6 | 798.2 | 789.3 | 783.5
393.15 K, 120000 kPa | 825.3 | 818.3 | 810.4 | 803.1 | 794.3 | 788.7
393.15 K, 130000 kPa | 829.8 | 822.9 | 815.1 | 808 | 799.4 | 793.8
393.15 K, 140000 kPa | 834 | 827.3 | 819.7 | 812.7 | 804.2 | 798.7
